Data taken from PubChem BioAssay (NCI).
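Where inhibition never reached the appropriate level, the endpoint shown equals the highest concentration tested. Otherwise, values were interpolated linearly from a five-concentration, 48-hour dose response in 96-well plates. GI50: concentration for 50% inhibition of growth. Definition used: TGI = concentration required for complete inhibition of growth.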

Columns and labels:
Test in all cases: NCI anticancer screen, dose series, 48 h
[1] = system: SN12C renal
[2] = system: NCI-H460 lung
[3] = system: K-562 leukemia
[4] = system: MDA-MB-435
[5] = system: TK-10 renal
[6] = system: SNB-19 CNS
[7] = system: A498 renal
[8] = system: OVCAR-3 ovarian
[9] = system: SK-MEL-2 melanoma
[10] = system: 786-0 renal
[11] = system: HS 578T breast
[12] = system: ACHN renal
[13] = system: MOLT-4 leukemia
[14] = system: HL-60(TB) leukemia
[15] = system: CAKI-1 renal
[16] = system: COLO 205 colon
[17] = system: NCI/ADR-RES ovarian
[18] = system: EKVX NSCLC
[19] = system: LOX IMVI melanoma
[20] = system: UACC-257 melanoma
[21] = system: HCT-116 colon
[22] = system: HOP-92 NSCLC
[23] = system: M14 melanoma
[24] = system: KM12 colon
[25] = system: SNB-75 CNS
[26] = system: SK-OV-3 ovarian
[27] = system: BT-549 breast
[28] = system: HCC-2998 colon
[29] = system: SW-620 colon
[30] = system: RXF 393 renal
[31] = system: SR leukemia
[32] = system: SK-MEL-28 melanoma
[33] = system: A549 NSCLC
[34] = system: MCF7 breast
[35] = system: SK-MEL-5 melanoma
[36] = system: HCT-15 colon
[37] = system: CCRF-CEM leukemia
[38] = system: NCI-H226 lung
[39] = system: OVCAR-8 ovarian
[40] = system: MDA-MB-231 breast
[41] = system: UO-31 renal
[42] = system: RPMI-8226 leukemia
[43] = system: SF-295 CNS
[44] = system: OVCAR-4 ovarian
[45] = system: HT29 colon
[46] = system: PC-3 prostate
[47] = system: SF-268 CNS
[48] = system: SF-539 CNS
[49] = system: UACC-62 melanoma
[50] = system: OVCAR-5 ovarian
[51] = system: IGROV1 ovarian
[52] = system: NCI-H522 lung
[53] = system: NCI-H23 lung
[54] = system: DU-145 prostate
[55] = system: HOP-62 NSCLC
[56] = system: U251 CNS

CCCn1cnc2c(c1=N)C(c1ccc(F)cc1)c1sc3c(CC)cccc3c1O2 (stereo unspecified)
GI50 [1]: 398 nM
TGI [1]: 22500 nM
GI50 [2]: 211 nM
TGI [2]: 13900 nM
GI50 [3]: 58.3 nM
TGI [3]: > 100000 nM
GI50 [4]: 23.9 nM
TGI [4]: 60 nM
GI50 [5]: 19400 nM
TGI [5]: > 100000 nM
GI50 [6]: 273 nM
TGI [6]: 49400 nM
GI50 [7]: 79.9 nM
TGI [7]: 1040 nM
GI50 [8]: 68 nM
TGI [8]: 7680 nM
GI50 [9]: 7570 nM
TGI [9]: > 100000 nM
GI50 [10]: 443 nM
TGI [10]: > 89200 nM
GI50 [11]: 86.4 nM
TGI [11]: > 88000 nM
GI50 [12]: 133 nM
TGI [12]: 49900 nM
GI50 [13]: 434 nM
TGI [13]: > 100000 nM
GI50 [14]: 243 nM
TGI [14]: 1080 nM
GI50 [15]: 62.1 nM
TGI [15]: 18300 nM
GI50 [16]: 354 nM
TGI [16]: 1950 nM
GI50 [17]: 50.1 nM
TGI [17]: 26400 nM
GI50 [18]: 481 nM
TGI [18]: > 100000 nM
GI50 [19]: 40.4 nM
TGI [19]: 31300 nM
GI50 [20]: 27500 nM
TGI [20]: > 100000 nM
GI50 [21]: 263 nM
TGI [21]: 4770 nM
GI50 [22]: 53.8 nM
TGI [22]: 4190 nM
GI50 [23]: 182 nM
TGI [23]: 33600 nM
GI50 [24]: 275 nM
TGI [24]: > 42300 nM
GI50 [25]: 35.3 nM
TGI [25]: 36500 nM
GI50 [26]: 1210 nM
TGI [26]: 35000 nM
GI50 [27]: 1990 nM
TGI [27]: 19100 nM
GI50 [28]: 337 nM
TGI [28]: 38700 nM
GI50 [29]: 237 nM
TGI [29]: > 100000 nM
GI50 [30]: 29.4 nM
TGI [30]: 130 nM
GI50 [31]: 117 nM
TGI [31]: > 42300 nM
GI50 [32]: 8900 nM
TGI [32]: > 100000 nM
GI50 [33]: 236 nM
TGI [33]: > 90700 nM
GI50 [34]: 24.7 nM
TGI [34]: > 100000 nM
GI50 [35]: 99.8 nM
TGI [35]: 1200 nM
GI50 [36]: 179 nM
TGI [36]: > 100000 nM
GI50 [37]: 314 nM
TGI [37]: > 67900 nM
GI50 [38]: 395 nM
GI50 [39]: 434 nM
TGI [39]: > 100000 nM
GI50 [40]: 325 nM
TGI [40]: > 62300 nM
GI50 [41]: 81.3 nM
TGI [41]: > 100000 nM
GI50 [42]: 200 nM
TGI [42]: > 22900 nM
GI50 [43]: 47.8 nM
TGI [43]: > 47900 nM
GI50 [44]: 336 nM
TGI [44]: > 100000 nM
GI50 [45]: 302 nM
TGI [45]: 27300 nM
GI50 [46]: 79.8 nM
TGI [46]: > 51400 nM
GI50 [47]: 241 nM
TGI [47]: > 100000 nM
GI50 [48]: 94.9 nM
TGI [48]: 815 nM
GI50 [49]: 38 nM
TGI [49]: 29000 nM
GI50 [50]: 493 nM
TGI [50]: > 100000 nM
GI50 [51]: 176 nM
TGI [51]: 24000 nM
GI50 [52]: 35.9 nM
TGI [52]: 8080 nM
GI50 [53]: 138 nM
TGI [53]: 19300 nM
GI50 [54]: 309 nM
TGI [54]: 15300 nM
GI50 [55]: 423 nM
TGI [55]: 29700 nM
GI50 [56]: 273 nM
TGI [56]: > 40600 nM
